Source: patent publication US8354436B2 (4SC Discovery GmbH, priority 2011, dated 2013)
Where two headings read alike, the source gives them in different places.

Assays:
Format in all cases: cell-based
Conditions in all cases: 48 hours
[1] = test system: PBMC from healthy human donors; assay: T cell proliferation assay (PHA-stimulated human PBMC, BrdU ELISA)
Summary of the method: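 Healthy-donor PBMC isolated on Ficoll, seeded at 1×10⁵ cells/well in RPMI with 10% dialysed FCS, stimulated with 2 μg/ml PHA in presence of test compound. Proliferation read after 48 hours by BrdU-incorporation ELISA.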

[2] = test system: IFN-γ; assay: IFN-γ production by PHA-stimulated human PBMC (OptEIA human IFN-g ELISA)
Summary of the method: (§1)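 Healthy-donor PBMC (1×10^5 cells/well) were activated with 2 μg/ml PHA and cultured with test compounds for 48 hours; cytokines were then quantified in supernatants by the respective immunoassay. Screening used 10, 1, 0.1 and 0.01 μM; IC50 came from semilogarithmic compound titration.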

[3] = test system: IL-17FF; assay: IL-17FF production by PHA-stimulated human PBMC (human IL-17F ELI-Pair)
Summary of the method: as §1

[4] = PHA-stimulated human PBMC, column D, read-out: IC50 (Tcell proliferation)
[5] = PHA-stimulated human PBMC, column C, read-out: IC50 (IFNγ)
[6] = PHA-stimulated human PBMC, column B, read-out: IC50 (IL-17FF)
[7] = human PBMC, 2 μg/ml PHA, read-out: D: IC50 (Tcell proliferation)
[8] = human PBMC, 2 μg/ml PHA, read-out: C: IC50 (IFNγ)
[9] = human PBMC, 2 μg/ml PHA, read-out: B: IC50 (IL-17FF)

Row | Compound | IC50 [1, 4] | IC50 [2, 5] | IC50 [3, 6] | IC50 [1, 7] | IC50 [2, 8] | IC50 [3, 9]
1 | Nc1c(-c2c(F)cccc2Cl)noc1-c1cnn(-c2cccc(F)c2)c1C(F)(F)F [Example I-117, 3-(2-chloro-6-fluorophenyl)-5-(1-(3-fluorophenyl)-5-(trifluoromethyl)-1H-pyrazol-4-yl)isoxazol-4-amine] | 100 to 1000 nM | 100 to 1000 nM | 100 to 1000 nM | – | – | –
2 | COC(=O)c1c(-c2c(F)cccc2Cl)noc1-c1cnn(CC(C)C)c1C(F)(F)F [Example I-28] | 100 to 1000 nM | 10 to 100 nM | 10 to 100 nM | – | – | –
3 | CNC(=O)c1c(-c2c(F)cccc2Cl)noc1-c1cnn(-c2ccc(F)cc2)c1C(F)(F)F [Example I-55, 3-(2-chloro-6-fluorophenyl)-5-(1-(4-fluorophenyl)-5-(trifluoromethyl)-1H-pyrazol-4-yl)-N-methylisoxazole-4-carboxamide] | 100 to 1000 nM | 100 to 1000 nM | 100 to 1000 nM | – | – | –
4 | CCOC(=O)c1c(-c2ccccc2F)noc1-c1cnn(-c2cccc(Cl)c2)c1C(F)(F)F [IB-47, ethyl 5-(1-(3-chlorophenyl)-5-(trifluoromethyl)-1H-pyrazol-4-yl)-3-(2-fluorophenyl)isoxazole-4-carboxylate] | 10 to 100 nM | 10 to 100 nM | 10 to 100 nM | – | – | –
5 | COC(=O)c1c(-c2c(F)cccc2Cl)noc1-c1cnn(-c2ccccc2F)c1 [Example I-89, Methyl 3-(2-chloro-6-fluorophenyl)-5-[1-(2-fluorophenyl)-1H-pyrazol-4-yl]isoxazole-4-carboxylate] | 100 to 1000 nM | 100 to 1000 nM | 10 to 100 nM | – | – | –
6 | CCOC(=O)c1c(-c2c(F)cccc2Cl)noc1-c1cnn(-c2ccccc2NC(C)=O)c1C(F)(F)F [IB-1] | 1000 to 10000 nM | 100 to 1000 nM | 1000 to 10000 nM | – | – | –
7 | O=C(O)c1c(-c2ccccc2Cl)noc1-c1cnn(-c2cccc(Cl)c2)c1C(F)(F)F [IB-42, 3-(2-chlorophenyl)-5-(1-(3-chlorophenyl)-5-(trifluoromethyl)-1H-pyrazol-4-yl)-isoxazole-4-carboxylic acid] | 1000 to 10000 nM | 1000 to 10000 nM | 1000 to 10000 nM | – | – | –
8 | CCOC(=O)c1c(-c2c(Cl)cncc2Cl)noc1-c1cnn(-c2ccccc2F)c1C(F)(F)F [IB-9, ethyl 3-(3,5-dichloropyridin-4-yl)-5-(1-(2-fluorophenyl)-5-(trifluoromethyl)-1H-pyrazol-4-yl)isoxazole-4-carboxylate] | 10 to 100 nM | 10 to 100 nM | 10 to 100 nM | – | – | –
9 | CCOC(=O)c1c(-c2c(F)cccc2Cl)noc1-c1cnn(-c2ccccc2C#N)c1C(F)(F)F [IB-44, ethyl 3-(2-chloro-6-fluorophenyl)-5-(1-(2-cyanophenyl)-5-(trifluoromethyl)-1H-pyrazol-4-yl)-isoxazole-4-carboxylate] | 1000 to 10000 nM | 1000 to 10000 nM | 1000 to 10000 nM | – | – | –
10 | CC(C)OC(=O)c1c(-c2c(F)cccc2Cl)noc1-c1cnn(-c2cccnc2)c1C(F)(F)F [IB-61, isopropyl 3-(2-chloro-6-fluorophenyl)-5-(1-(pyridin-3-yl)-5-(trifluoromethyl)-1H-pyrazol-4-yl)isoxazole-4-carboxylate] | 10 to 100 nM | < 10 nM | 10 to 100 nM | – | – | –
11 | CCOC(=O)c1c(-c2c(F)cccc2Cl)noc1-c1cnn(-c2ccccc2F)c1C(F)(F)F [Example I-42, Ethyl 3-(2-chloro-6-fluorophenyl)-5-[1-(2-fluorophenyl)-5-(trifluoromethyl)-1H-pyrazol-4-yl]isoxazole-4-carboxylate] | 10 to 100 nM | < 10 nM | 10 to 100 nM | – | – | –
12 | O=C(c1c(-c2ccccc2Cl)noc1-c1cnn(-c2cccc(Cl)c2)c1C(F)(F)F)N1CCCO1 [IB-62, (3-(2-chlorophenyl)-5-(1-(3-chlorophenyl)-5-(trifluoromethyl)-1H-pyrazol-4-yl)isoxazol-4-yl)(isoxazolidin-2-yl)methanone] | 10 to 100 nM | 10 to 100 nM | 10 to 100 nM | – | – | –
13 | O=C(c1c(-c2c(F)cccc2Cl)noc1-c1cnn(-c2ccccc2Cl)c1C(F)(F)F)N1CCCO1 [IB-49, (3-(2-chloro-6-fluorophenyl)-5-(1-(2-chlorophenyl)-5-(trifluoromethyl)-1H-pyrazol-4-yl)isoxazol-4-yl)(isoxazolidin-2-yl)methanone] | 1000 to 10000 nM | 1000 to 10000 nM | 100 to 1000 nM | – | – | –
14 | COC(=O)c1c(-c2c(F)cccc2Cl)noc1-c1cnn(-c2ccc(F)cc2)c1C(F)(F)F [Example I-3, methyl 3-(2-chloro-6-fluorophenyl)-5-(1-(4-fluorophenyl)-5-(trifluoromethyl)-1H-pyrazol-4-yl)isoxazole-4-carboxylate] | 10 to 100 nM | < 10 nM | < 10 nM | – | – | –
15 | Fc1cccc(-n2ncc(-c3onc(-c4c(F)cccc4Cl)c3Br)c2C(F)(F)F)c1 [Example I-137, 4-bromo-3-(2-chloro-6-fluorophenyl)-5-(1-(3-fluorophenyl)-5-(trifluoromethyl)-1H-pyrazol-4-yl)isoxazole] | 10 to 100 nM | 100 to 1000 nM | 100 to 1000 nM | – | – | –
16 | CSC(=O)c1c(-c2c(F)cccc2Cl)noc1-c1cnn(-c2ccccc2F)c1C(F)(F)F [Example I-130, S-methyl 3-(2-chloro-6-fluorophenyl)-5-(1-(2-fluorophenyl)-5-(trifluoromethyl)-1H-pyrazol-4-yl)isoxazole-4-carbothioate] | < 10 nM | < 10 nM | < 10 nM | – | – | –
17 | CCOC(=O)c1c(-c2c(F)cccc2Cl)noc1-c1cnn(CCOC)c1C(F)(F)F [IB-2, ethyl 3-(2-chloro-6-fluorophenyl)-5-(l-(2-methoxyethyl)-5-(trifluoromethyl)-1H-pyrazol-4-yl)isoxazole-4-carboxylate] | 1000 to 10000 nM | 100 to 1000 nM | 100 to 1000 nM | – | – | –
18 | CCOC(=O)c1c(-c2c(Cl)cncc2Cl)noc1-c1cnn(-c2cccc(NC(C)=O)c2)c1C(F)(F)F [IB-11, ethyl 5-(1-(3-acetamidophenyl)-5-(trifluoromethyl)-1H-pyrazol-4-yl)-3-(3,5-dichloropyridin-4-yl)isoxazole-4-carboxylate] | 100 to 1000 nM | 10 to 100 nM | 10 to 100 nM | – | – | –
19 | CCOC(=O)c1c(-c2c(F)cccc2Cl)noc1-c1cnn(-c2ccncc2)c1C(F)(F)F [IB-38, ethyl 3-(2-chloro-6-fluorophenyl)-5-(1-(pyridin-4-yl)-5-(trifluoromethyl)-1H-pyrazol-4-yl)-isoxazole-4-carboxylate] | < 10 nM | < 10 nM | < 10 nM | – | – | –
20 | Fc1cccc(Cl)c1-c1noc(-c2cnn(-c3cccnc3)c2C(F)(F)F)c1-c1nnco1 [Example B-15, 2-(3-(2-chloro-6-fluorophenyl)-5-(1-(pyridin-3-yl)-5-(trifluoromethyl)-1H-pyrazol-4-yl)isoxazol-4-yl)-1,3,4-oxadiazole] | – | – | – | 100 to 1000 nM | 100 to 1000 nM | 100 to 1000 nM
21 | NC(=S)c1c(-c2c(F)cccc2Cl)noc1-c1cnn(-c2ccccc2Cl)c1C(F)(F)F [IB-101, 3-(2-chloro-6-fluorophenyl)-5-(1-(2-chlorophenyl)-5-(trifluoromethyl)-1H-pyrazol-4-yl)isoxazole-4-carbothioamide] | 1000 to 10000 nM | 1000 to 10000 nM | 1000 to 10000 nM | – | – | –
22 | Fc1cccc(Cl)c1-c1noc(-c2cnn(-c3cccc(Cl)c3)c2C(F)(F)F)c1-c1ccco1 [Example B-6, 3-(2-chloro-6-fluorophenyl)-5-(1-(3-chlorophenyl)-5-(trifluoromethyl)-1H-pyrazol-4-yl)-4-(furan-2-yl)isoxazole] | – | – | – | < 10 nM | < 10 nM | < 10 nM
23 | N#Cc1c(-c2c(F)cccc2Cl)noc1-c1cnn(-c2cccc(F)c2)c1C(F)(F)F [Example I-120, 3-(2-chloro-6-fluorophenyl)-5-(1-(3-fluorophenyl)-5-(trifluoromethyl)-1H-pyrazol-4-yl)isoxazole-4-carbonitrile] | 100 to 1000 nM | 100 to 1000 nM | 100 to 1000 nM | – | – | –
24 | O=C(NCc1ccccc1C(F)(F)F)c1c(-c2c(F)cccc2Cl)noc1-c1cnn(-c2ccccc2F)c1C(F)(F)F [Example I-23, 3-(2-chloro-6-fluorophenyl)-5-(1-(2-fluorophenyl)-5-(trifluoromethyl)-1H-pyrazol-4-yl)-N-(2-(trifluoromethyl)ben-zyl)isoxazole-4-carboxamide] | 1000 to 10000 nM | 100 to 1000 nM | 1000 to 10000 nM | – | – | –
25 | COc1cccc(Cl)c1-c1noc(-c2cnn(-c3ccccc3Cl)c2C(F)(F)F)c1-c1cnco1 [Example B-34, 3-(2-chloro-6-methoxyphenyl)-5-(1-(2-chlorophenyl)-5-(trifluoromethyl)-1H-pyrazol-4-yl)-4-(oxazol-5-yl)isoxazole] | – | – | – | 100 to 1000 nM | 100 to 1000 nM | 100 to 1000 nM
26 | Fc1ccc(-n2ncc(-c3onc(-c4c(F)cccc4Cl)c3Br)c2C(F)(F)F)c(F)c1 [IB-24, 4-bromo-3-(2-chloro-6-fluorophenyl)-5-(1-(2,4-difluorophenyl)-5-(trifluoromethyl)-1H-pyrazol-4-yl)isoxazole] | 1000 to 10000 nM | 1000 to 10000 nM | 1000 to 10000 nM | – | – | –
27 | O=C(c1c(-c2c(F)cccc2Cl)noc1-c1cnn(-c2cccnc2)c1C(F)(F)F)N1CCCO1 [IB-54, (3-(2-chloro-6-fluorophenyl)-5-(1-(pyridin-3-yl)-5-(trifluoromethyl)-1H-pyrazol-4-yl)isoxazol-4-yl)(isoxazolidin-2-yl)methanone] | 1000 to 10000 nM | 1000 to 10000 nM | 1000 to 10000 nM | – | – | –
